Data taken from paper PMC11728001, “Design, Synthesis, and Biological Evaluation of Novel Urea-Containing Carnosic Acid Derivatives with Anticancer Activity” (International Journal of Molecular Sciences, 2024).

Columns and labels:
Type in all cases: cell-based
[1] = tested on: SW480 cells; experiment: Apoptosis assay (annexin V-FITC/PI, FACS); conditions: SW480, IC50 concentration
Source text: Apoptosis can be detected by staining the cells with annexin V and propidium iodide (PI). […] However, during the early stages of apoptosis, the membrane flips and PS is exposed on the outer side of the cell membrane. Thus, annexin V fluorescently labeled with fluorescein isothiocyanate (FITC) binds with high affinity for PS. In late apoptosis/necrosis, the cells experience a ruptured membrane, allowing Annexin V to interact with the entire cell membrane. At this stage, the nuclear membrane loses its integrity, which facilitates the binding of PI to DNA. Thus, this dual-staining protocol allows for the detection and quantification of live cells (annexin V−, PI−), early apoptotic cells (annexin V+, PI−), and late apoptotic/necrotic cells (annexin V+, PI+).
SW480 cells (1.68 × 10^5 cells/well) were seeded in 6-well plates and incubated at 37 °C for 24 h. Subsequently, the growth medium was replaced with fresh medium (control) or compound 14 at the previously determined IC50 concentration. Following incubation for 24, 48, or 72 h, the adherent cells were gently detached by trypsinization, washed with DPBS, and collected by centrifugation. Similarly, the cells in suspension were washed with DPBS and collected by centrifugation, along with the adhered cells. […]

[2] = tested on: SW480 cells; experiment: MTT cell viability assay, SW480; conditions: Homo sapiens, 72 h incubation, mean ± SD
Experimental: (§1) The effect of the compounds on cell viability was evaluated using the MTT assay. HCT116 (3000 cells/well), SW620 (8000 cells/well), SW480 (6000 cells/well), Caco-2 (4000 cells/well), A375 (1500 cells/well), MiaPaca-2 (2000 cells/well), and BJ (10,000 cells/well) cells were seeded in 96-well plates. After 24 h, the growth medium was replaced with a fresh medium containing the desired concentration of the compound or DMSO (control). After 72 h of incubation, the supernatant was removed and 100 µL of a mixture (1:1) of filtered MTT solution (1 mg/mL in PBS) with FBS-free medium was added to each well. After 1 h of incubation at 37 °C, the mixture was removed and 100 µL of DMSO was added to each well to dissolve the formed formazan crystals. Absorbance was immediately measured at 570 nm using a Benchmark Plus Microplate Reader (Bio-Rad Laboratories, Hercules, CA, USA). IC50 values were calculated using GraphPad Prism 9 software (GraphPad Software, San Diego, CA, USA) and expressed as the mean ± standard deviation (SD) of at least three independent experiments.

[3] = tested on: CDK4; experiment: Western blot, CDK4 expression in SW480 cells; conditions: SW480, IC50 concentration, 24 and 72 h
Experimental: (§2) SW480 cells (1.68 × 10^5 cells/well) were seeded in 6-well plates and incubated at 37 °C for 24 h. […] At the end of the treatment period, cells were washed twice with ice-cold DPBS and incubated for 30 min. at 4 °C with lysis buffer containing 20 mM Tris-HCl (pH 7.5), 1 mM DTT, 0.2% Triton X-100, 1 mM Na-EDTA, 0.5 mM sodium deoxycholate, 1% proteases inhibitor cocktail, and 0.5% phosphatases inhibitor cocktail. The cells were scraped, sonicated, and centrifuged at 12,000× g for 20 min. at 4 °C. The supernatants were recovered, and the protein concentration was quantified using Pierce^TM BCA protein assay reagents A and B and Pierce^TM bovine serum albumin standard ampules (2 mg/mL).
(§3) Membranes were blocked with 5% skim milk in PBS-Tween-20 (0.1%) for 1 h at room temperature, following its incubation with the specific primary antibodies overnight at 4 °C (CDK4, CDK6, and SOD2 (MnSOD)). Exceptionally, the primary antibody against actin was only incubated for 30 min. at room temperature. The membranes were then washed with PBS-Tween-20 (0.1%) and incubated for 40 min. with an anti-mouse secondary antibody or for 1 h with an anti-rabbit secondary antibody. After incubation, the membranes were washed again with PBS-Tween-20 (0.1%) and treated with the Immobilon Western Chemiluminescent HRP Substrate Kit. […]

[4] = tested on: CDK6; experiment: Western blot, CDK6 expression in SW480 cells; conditions: SW480, IC50 concentration, 24, 48 and 72 h
Experimental: as §2, §3

[5] = tested on: SW620 cells; experiment: MTT cell viability assay, SW620; conditions: Homo sapiens, SW-620, 72 h incubation, mean ± SD
Experimental: as §1

[6] = tested on: intracellular ROS in SW480 cells; experiment: ROS determination assay (H2DCFDA, flow cytometry); conditions: SW480, IC50 concentration
Experimental: Intracellular ROS levels were assessed by flow cytometry using H2DCFDA probe. SW480 cells were cultured in 6-well plates and treated according to the procedure described for the apoptosis assay. After incubation for 24, 48, and 72 h, adherent cells were collected by centrifugation after trypsinization and washed with DPBS. The cells were then incubated with 1 mL HBSS containing 2 mM L-glutamine and 50 µM H2DCFDA probe at 37 °C for 45 min. in a cell culture incubator. Next, the cellular suspension was washed with 2 mL of DPBS and the cells were collected by centrifugation. Finally, the cells were gently resuspended in 350 µL DPBS containing 20 µg/mL PI solution (1 mg/mL). The intracellular internalized probe reacts with ROS and undergoes transformation into 2′,7′-dichlorofluorescein (DCF). DCF fluorescence data were collected from 1 × 10^4 PI-negative cells by using a Gallios flow cytometer (Beckman Coulter, Brea, CA, USA) at 520 nm.

[7] = tested on: A375 melanoma cells; experiment: MTT cell viability assay, A375; conditions: Homo sapiens, A-375, 72 h incubation, mean ± SD
Experimental: as §1

## CC(=O)Oc1c(C(C)C)cc2c(c1OC(C)=O)[C@@]1(NC(=O)NCCc3cccc(Cl)c3)CCCC(C)(C)[C@@H]1CC2 [Compound 14, (4bR,8aS)-4b-(3-(3-chlorophenethyl)ureido)-2-isopropyl-8,8-dimethyl-4b,5,6,7,8,8a,9,10-octahydrophenanthrene-3,4-diyl diacetate]
[1]; 48 and 72 h
  increase of cells in late apoptosis/necrosis: not sustained
[1]; 24 h, control 6.5%
  percentage of cells in late apoptosis/necrosis: 8.3%
[2]
  IC50: 6.1 ± 0.3 µM
[3]
  CDK4 expression versus untreated cells: downregulation
[4]
  CDK6 expression versus untreated cells: downregulation
[5]
  IC50: 6.1 ± 0.3 µM
[6]; 24 h
  percentage of intracellular ROS compared with control: 56%
[6]; 48 h
  percentage of intracellular ROS compared with control: 71%
[6]; 72 h
  change in ROS levels: no significant changes
[7]
  IC50: 7 ± 0.4 µM
